Reference: patent publication US8168801B2, “Imidazolium-type ionic oligomers” (The Royal Institution for the Advancement of …, priority 2007, dated 2012)
Counter-ions that a name gives are not always drawn.

How the values were obtained:
[1] = Thermal stability by thermogravimetric analysis (TGA); type: physicochemical; details: 25° C. to 550° C. at 20° C./min under nitrogen, then air to 700° C., platinum pan
Protocol: The thermal stability of the imidazolium-type ionic oligomers was measured by thermogravimetric analysis (TGA).^42 The onset decomposing temperatures (ODTs) and residue percentages (RPs) are summarized hereinbelow in Table 1.
General: All reagents were commercially obtained from Aldrich Chemical Co. and were used without further purification unless otherwise noted. Solvents were of reagent grade and, if necessary, were dried by standard procedures. ^1H NMR, ^13C NMR and COSY NMR spectra were acquired using Varian Mercury 300 MHz, 400 MHz and Unity 500 MHz spectrometers respectively, equipped with Sun workstations. The proton chemical shifts were reported in parts per million on the δ scale, referenced to the residual proton resonance in CDCl3 (δ 7.24 ppm) or D2O (δ 4.67 ppm). The carbon chemical shifts were reported in parts per million on the δ scale, internally referenced to the solvent resonance in CDCl3 (δ 77.0 ppm). The proton and carbon assignments were made by standard gCOSY experiments. Melting points were taken using a standard melting point apparatus without correcting the thermometer. High resolution mass spectrometric analyses were performed on a VG Micromass ZAB 2F HS (FAB) or a Microm as Quattro II triple quadrupole mass spectrometer (Manchester, UK) equipped with an electrospray ionization source (ESI). Typically only the ion corresponding to the cation (C) component was analyzed. Thermogravimetric analysis (TGA) measurements were performed on a TGA Q500 from TA instruments. The running method used was ramped from 25° C. to 550° C., 20° C./min, under nitrogen, switching to air and then ramped at 20° C./min to 700° C. The type of pan used was platinum. High-pressure liquid chromatography (HPLC) analyses were performed using a reverse phase C18 column (Agilent Zorbax Extend-C18). The elution was performed using a linear gradient from 50% to 100% of B in A over 20 min, followed by a linear gradient elution from 100% to 50% of B in A over 10 min, where A is H2O/0.05% TFA (v/v) and B is CH3CN/0.05% TFA (v/v), at a flow rate of 0.8 mL/min. The eluted compounds were detected by UV absorbance at 210 nm. […]

[2] = Moisture affinity (absorption of moisture from the atmosphere); type: physicochemical

Row | SMILES | melting point [°C] | Onset decomposing temperature (ODT) [1] [°C] | Residue percentage (RP) [1] [%] | Absorption of moisture from the atmosphere [2]
1 | Cc1n(C)cc[n+]1CCCBr (as salt: bromide) [Compound 2] | 96 to 98 | – | – | –
2 | Cc1nccn1CCC[n+]1ccn(C)c1C (as salt: bromide) [Compound 3] | 159 to 161 | – | – | –
3 | Cc1n(C)cc[n+]1CCCn1cc[n+](CCCBr)c1C (as salt: bromide) [Compound 9] | 201 to 203 | – | – | –
4 | Cc1nccn1CCC[n+]1ccn(C)c1C (as salt: triflate) [Compound 4] | 120 to 122 | – | – | –
5 | Cc1n(C)cc[n+]1CCCn1cc[n+](CCCBr)c1C (as salt: triflate) [Compound 5] | 76 to 78 | – | – | –
6 | Cc1n(C)cc[n+]1CCCn1cc[n+](CCCBr)c1C (as salt: triflate) [Compound 10] | 84 to 86 | – | – | –
7 | Cc1nccn1C [Compound 1, 1,2-dimethylimidazole, reference compound] | – | 80.6 | 0.18 | –
8 | Cc1n(C)cc[n+]1CCCBr [Compound 2] | – | 215.8 | 0.10 | –
9 | Cc1nccn1CCC[n+]1ccn(C)c1C [Compound 3] | – | 287.8 | 1.53 | significantly slower rate than compound 2
10 | Cc1nccn1CCC[n+]1ccn(C)c1C [Compound 4] | – | 293.9 | 1.71 | significantly slower rate than compound 2
11 | Cc1n(C)cc[n+]1CCCn1cc[n+](CCCBr)c1C [Compound 5] | – | 239.4 | 0.59 | –
12 | Cc1nccn1CCC[n+]1ccn(CCC[n+]2ccn(C)c2C)c1C [Compound 6] | 121 to 123 | 329.6 | 1.38 | did substantially not absorb moisture
13 | Cc1n(C)cc[n+]1CCCn1cc[n+](CCCBr)c1C [Compound 9] | – | 212.2 | 1.89 | –
14 | Cc1n(C)cc[n+]1CCCn1cc[n+](CCCBr)c1C [Compound 10] | – | 277.8 | 0.50 | –
15 | Cc1nccn1CCC[n+]1ccn(CCC[n+]2ccn(C)c2C)c1C [Compound 11] | 107 to 109 | 326.2 | 1.76 | did substantially not absorb moisture
